These results are taken from patent publication US5126246A, “Reagent for analysis of triglycerides and analysis using the same” (priority 1988, dated 1992).

In assay [1] the test system is monoglyceride lipase. Briefly: Substrate specificity of the monoglyceride lipase (enzymatic activity assay, glycerol formed). The format is biochemical, Bacillus stearothermophilus H-165. The settings on record: for Activity of lipase (%): relative activity of monoglyceride lipase on the substrate, Monolaurin 100.0; for Glycerol hydrolyzed from substrate in the presence of the monoglyceride lipase: diglyceride or triglyceride used as substrate. The procedure: (8) Substrate specificity: The substrate specificity of the monoglyceride lipase in this invention is investigated under conditions where the below-described assay method of enzymatic activity for the monoglyceride lipase is conducted.
MEASUREMENT METHOD OF ENZYMATIC ACTIVITY OF MONOGLYCERIDE LIPASE
(§1) To 0.4 ml of a solution of the above composition, is added 50 μl of 10 mM monolaurin (0.5 % aqueous solution of "Triton X-100"). The resultant mixture is pre-incubated at 37° C. for 2-3 minutes and 50 μl of an enzyme solution is added to initiate a reaction. Exactly 10 minutes later, 2.5 ml of 5 % SDS (sodium dodecyl sulfate) is added to terminate the reaction. The absorbance is measured at 550 nm. Regarding the enzymatic activity, the activity capable of producing 1 μmole of glycerol per minute is defined at 1 Unit (1 U). The following equation is used for calculation of enzymatic activity (potency): [formula] wherein ΔA 550: Absorbance at the wavelength of 550 nm

The test system of assay [2] is monoglyceride lipase. Briefly: Effects of surface active agents and metal ions on the monoglyceride lipase. The format is biochemical, Bacillus stearothermophilus H-165. The settings on record: for Effect of added reagent on monoglyceride lipase activity: Table 2; for Activity of lipase (%): no reagent 100. The procedure:
The mon[…] is not affected by the addition of divalent metal ions such as Ca^++ and Mg^++.
MEASUREMENT METHOD OF ENZYMATIC ACTIVITY OF MON[…]
as §1

The next assay addresses T1, pancreatic lipase (Sus scrofa, UniProt P00591).
T1 sequence (P00591 1-450): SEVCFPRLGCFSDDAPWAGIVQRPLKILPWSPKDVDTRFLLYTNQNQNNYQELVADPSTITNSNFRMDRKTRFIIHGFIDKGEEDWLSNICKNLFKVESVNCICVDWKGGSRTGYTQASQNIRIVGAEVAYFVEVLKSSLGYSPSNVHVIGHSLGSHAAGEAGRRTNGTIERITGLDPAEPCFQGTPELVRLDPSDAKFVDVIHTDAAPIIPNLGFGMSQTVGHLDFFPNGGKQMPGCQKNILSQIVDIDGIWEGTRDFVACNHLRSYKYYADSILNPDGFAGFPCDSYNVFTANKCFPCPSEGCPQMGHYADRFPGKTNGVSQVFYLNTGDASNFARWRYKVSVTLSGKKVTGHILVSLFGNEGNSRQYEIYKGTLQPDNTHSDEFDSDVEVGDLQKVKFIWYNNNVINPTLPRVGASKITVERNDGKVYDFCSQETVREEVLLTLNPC
The assay can be described thus: Glycerol liberated from α,β-diglyceride substrates by pancreatic lipase only. The format is biochemical. The settings on record: only pancreatic lipase used. The text has this: (§2) (i) Pancreatic lipase and the monoglyceride lipase are applied to the below-described α,β-diglyceride substrates. Their α-positions are hydrolyzed by the pancreatic lipase and then the resulting β-monoglycerides are allowed to react with the monoglyceride lipase, in order to analyze glycerol thus liberated. Glycerol is detected with respect to the substrates, namely,α-oleyl-β-palmitoyldiglyceride, α-palmitoly-β-oleolyldiglyceride and α,β-dilinoleylglyceride. However, glycerol is not detected when only pancreatic lipase is used.

In assay [3] the test system is Pancreatic lipase and the monoglyceride lipase. The assay can be described thus: Glycerol liberated from α,β-diglyceride substrates by pancreatic lipase plus monoglyceride lipase. The format is biochemical. The settings on record: pancreatic lipase and monoglyceride lipase applied.
Description: (2) Substrate specificity of the monoglyceride lipase upon use of α,β-diglyceride as a substrate:
as §2

Setting [4] is: reagent concentration 1 mM, 10 min.

Where “and” joins values, the source holds several entries; their conditions need not be identical. Equal entries are not always repeated.

Regarding `CCCCCCCCCCCCCC(=O)OCC(O)CO` (stereo not drawn) [Monomyristin], the “Activity of lipase (%)” value with monoglyceride lipase [1] is given as 85.7%.

For the compound `CCCC(=O)OCC(COC(=O)CCC)OC(=O)CCC` [Tributyrin], the “Activity of lipase (%)” value in the assay with monoglyceride lipase [1] was 0%.

In the case of `CCCCCCCC/C=C\CCCCCCCC(=O)OCC(COC(=O)CCCCCCC/C=C\CCCCCCCC)OC(=O)CCCCCCC/C=C\CCCCCCCC` [Triolein], in the assay with monoglyceride lipase [1], the “Glycerol hydrolyzed from substrate in the presence of the monoglyceride lipase” value (“Glycerol hydrolyzed from substrate” for short) was “no glycerol hydrolyzed is detected” and the “Activity of lipase (%)” value was 0%.

For `C[C@H](CCC(=O)O)[C@H]1CC[C@H]2[C@@H]3[C@H](O)C[C@@H]4C[C@H](O)CC[C@]4(C)[C@H]3C[C@H](O)[C@]12C` [Cholic acid], the “Effect of added reagent on monoglyceride lipase activity” value (shortened to “Effect of added reagent”) in the assay on monoglyceride lipase [2] is recorded as “inhibition of the activity is observed in the high concentration range”. Further, the “Activity of lipase (%)” value in the assay on monoglyceride lipase [2] (setting [4]) was determined as 100.0%; in the assay on monoglyceride lipase [2] (reagent concentration 10 mM) it was 92.6%.

For the compound `CCCCCCCCCC(=O)OCC(O)CO` (stereo not drawn) [Monocaprin], the “Activity of lipase (%)” value in the assay on monoglyceride lipase [1] was 89.1%.

Consider `CC(=O)OCC(COC(C)=O)OC(C)=O` [Triacetin], for which the “Activity of lipase (%)” value in the assay with monoglyceride lipase [1] was determined as 0%.

For the compound `CCCCC/C=C\C/C=C\CCCCCCCC(=O)OCC(CO)OC(=O)CCCCCCC/C=C\C/C=C\CCCCC` (stereo not drawn) [1,2-dilinolein], in the assay with monoglyceride lipase [1], the “Glycerol hydrolyzed from substrate” value was “no glycerol hydrolyzed is detected” and the “Activity of lipase (%)” value amounted to 0%.

For `[Ca+2].[Cl-].[Cl-]` [CaCl2, calcium chloride], the “Effect of added reagent” value in the assay with monoglyceride lipase [2] was “not affected”. In addition, the “Activity of lipase (%)” value in the assay on monoglyceride lipase [2] (setting [4]) is given as 100.0%.

In the case of `CCCCC/C=C\C/C=C\CCCCCCCC(=O)OCC(CO)OC(=O)CCCCCCC/C=C\C/C=C\CCCCC` (stereo not drawn) [α,β-dilinoleylglyceride], the figures for the Glycerol liberated entry (on pancreatic lipase; in assay [3]) were “not detected” and “detected”, respectively.

Consider `CCCCCCCCCCCC(=O)OCC(O)CO` (stereo not drawn) [Monolaurin], for which the “Activity of lipase (%)” value with monoglyceride lipase [1] stood at 100.0%.

As to `CC(=O)OCC(O)CO` (stereo not drawn) [Monoacetin], in the assay with monoglyceride lipase [1], the “Activity of lipase (%)” value came to 10.1%.

In the case of `CCCCCCCC/C=C\CCCCCCCC(=O)OCC(O)CO` (stereo not drawn) [Monoolein], in the assay on monoglyceride lipase [1], the “Activity of lipase (%)” value was 56.3% and 75.6%.

As to `O=C(O)CN(CCN(CC(=O)O)CC(=O)O)CC(=O)O` [EDTA], the “Activity of lipase (%)” value in the assay on monoglyceride lipase [2] (setting [4]) stood at 86.0%.

As for `CCCCC/C=C\C/C=C\CCCCCCCC(=O)OCC(O)COC(=O)CCCCCCC/C=C\C/C=C\CCCCC` [1,3-dilinolein], in the assay with monoglyceride lipase [1], the “Glycerol hydrolyzed from substrate” value was “no glycerol hydrolyzed is detected” and the “Activity of lipase (%)” value is on record as 0%.

As to `[Cl-].[Cl-].[Mg+2]` [MgCl2, magnesium chloride], the “Effect of added reagent” value with monoglyceride lipase [2] is reported as “not affected”. The “Activity of lipase (%)” value in the assay on monoglyceride lipase [2] (setting [4]) amounted to 100.0%.

For the compound `CCCCCCCC/C=C\CCCCCCCC(=O)OCC(CO)OC(=O)CCCCCCCCCCCCCCC` (stereo not drawn) [α-oleyl-β-palmitoyldiglyceride], the Glycerol liberated entry on pancreatic lipase is “not detected”; in assay [3], “detected”.

Take `CCCCCCCCCCCCCCCC(=O)OCC(O)CO` (stereo not drawn) [Monopalmitin]: the “Activity of lipase (%)” value in the assay with monoglyceride lipase [1] came out at 39.5%.

Take `CCCCCCCC/C=C\CCCCCCCC(=O)OC(CO)COC(=O)CCCCCCCCCCCCCCC` (stereo not drawn) [α-palmitoly-β-oleolyldiglyceride]: the Glycerol liberated entry at pancreatic lipase is “not detected”; in assay [3], “detected”.

With `CCCCCCCCCCCCCCCCCC(=O)OCC(O)CO` (stereo not drawn) [Monostearin], in the assay on monoglyceride lipase [1], the “Activity of lipase (%)” value was 27.6%.

For `CCCC(=O)OCC(O)CO` (stereo not drawn) [Monobutyrin], the “Activity of lipase (%)” value in the assay on monoglyceride lipase [1] amounted to 47.1%.
